Measured values reported in patent EP0284180A1, “Prostaglandins E and anti ulcers containing same” (Kabushiki Kaisha Ueno Seiyaku Oyo Kenkyujo, priority 1987, dated 1988).

How the values were obtained:
[1] = tested on: indomethacin-induced ulcers; assay: Indomethacin-induced ulcers (indomethacin ulcer preventing effect); assay type: in vivo, male rats of the Crj : Wistar strain; settings: rats; for ED50: ulcer inhibition rate (Table 2); for Ulcer index (aver. ± SE): indomethacin 10 mg/kg oral ulcer, index 0-4
Procedure: (§1) As test samples, we used the PGE as obtained in Examples 2 to 52 as described herein, 13,14-dihydro-15-keto-PGE2 (produced by Funakoshi & Co.) being employed as a control reference.
(§2) Each group of test animals used consisted of 8 to 10 male rats of the Crj : Wistar strain, weighing 180 to 230 g. Test animals were fasted for 24 hours before the oral administration of the test samples; in the case of development of confinement-stress induced ulcers through immersion in water, 10 minutes after oral administration of the test specimens, the aminals were confined in a stress cage developed by Univ. of Tokyo, then immersed up to the ensiform process of sternum in water at 23°C for 4 hours and sacrificed; in the case of formation of indomethacin-induced ulcers, shortly after the materials were given, animals were given indomethacin orally at a dose of 10 mg/kg and sacrificed after 5 hours.
(§3) The stomacks were taken out, followed by fixation with 1 % formalin, and incised along the greater curvature to carry out investigation under an illuminated magnifier for ulceration. The degree and extent of lesion and ulcer were rated based on the ulceration index being classified into the following five numerical categories: • 0: normal, with no lesion detected; • 1: bleeding or erosion of mucosa; • 2: development of less than 5 small ulcers (not greater than 2 mm in diameter); • 3: generation of not less than 5 small ulcers or a large ulcer (not less than 2 mm in diameter); • 4: generation of not less than 2 large ulcers.
(§4) On the basis of the criteria that the rats with the ulceration index of not less than "2", the ulcer inhibition rate (EDso) was calculated from ulcer-generation ratio in the control and the ratio of the test specimens.

[2] = tested on: confinement-stress induced ulcers through immersion in water; assay: Confinement-stress induced ulcers through immersion in water (hydrorestraint stress ulcer preventing effect); assay type: in vivo, male rats of the Crj : Wistar strain; settings: Rattus norvegicus, stress ulcer, rats, oral; for inhibition at 1 mg/kg: dosage 1 mg/kg; for inhibition at 3 mg/kg: dosage 3 mg/kg; for inhibition at 10 mg/kg: dosage 10 mg/kg; for ED50: ulcer inhibition rate, ulceration index not less than 2 counted (Table 1), read-out: ED50; for inhibition at 5 mg/kg: dosage 5 mg/kg
Procedure: as §1, §2, §3, §4

[3] = Rattus norvegicus, indomethacin ulcer, oral, dosage 3 mg/kg, read-out: Inhibition factor (%)
[4] = Rattus norvegicus, indomethacin ulcer, oral, dosage 10 mg/kg, read-out: Inhibition factor (%)
[5] = Rattus norvegicus, indomethacin ulcer, oral
[6] = read-out: Inhibition factor (%)
[7] = Rattus norvegicus, indomethacin ulcer, oral, dosage 20 mg/kg, read-out: Inhibition factor (%)

SMILES | inhibition at 3 mg/kg [1, 3] [%] | ED50 [1, 5] [mg/kg] | Ulcer index (aver. ± SE) ([1]; dosage 3 mg/kg) | inhibition at 1 mg/kg [2, 6] [%] | inhibition at 3 mg/kg [2, 6] [%] | inhibition at 10 mg/kg [2, 6] [%] | ED50 [2] [mg/kg] | inhibition at 5 mg/kg [2, 6] [%] | further results
CCCCCC(=O)CC[C@H]1[C@H](O)CC(=O)[C@@H]1CC(=O)CCCCC(=O)OCC (racemic) [(11)] | 0 | 10 | 2.6±0.3 | 25 | 57.1 | 85.7 | 2.4 | – | inhibition at 10 mg/kg [1, 4]: 50%; Ulcer index (aver. ± SE) ([1]; dosage 10 mg/kg): 2.0±0.2
CCCCCC(=O)CC[C@H]1[C@H](O)CC(=O)[C@@H]1C/C=C\CCCC(=O)O [(1)] | – | > 20 | – | – | – | – | > 20 | – | inhibition at 20 mg/kg [1, 7]: 4%; Ulcer index (aver. ± SE) ([1]; dosage 20 mg/kg): 2.4±0.4; inhibition at 20 mg/kg ([2]; dosage 20 mg/kg, read-out: Inhibition factor (%)): 6.3%
CCCCCC(=O)CC[C@H]1[C@H](O)CC(=O)[C@@H]1C/C=C\CCCC(=O)OC [(2)] | 30 | 6 | 1.9±0.4 | – | – | – | 4 | 58.3 | inhibition at 6 mg/kg ([1]; Rattus norvegicus, indomethacin ulcer, oral, dosage 6 mg/kg, read-out: Inhibition factor (%)): 50%; inhibition at 20 mg/kg [1, 7]: 100%; Ulcer index (aver. ± SE) ([1]; dosage 6 mg/kg): 1.4±0.3; Ulcer index (aver. ± SE) ([1]; dosage 20 mg/kg): 0.4±0.2; inhibition at 15 mg/kg ([2]; dosage 15 mg/kg, read-out: Inhibition factor (%)): 87.5%
CCCCCC(=O)CC[C@H]1[C@H](O)CC(=O)[C@@H]1C/C=C\CCCC(=O)OCC [(3)] | 42.9 | 4.4 | 1.7±0.4 | 25 | 86.1 | 100 | 1.5 | – | inhibition at 10 mg/kg [1, 4]: 71.4%; Ulcer index (aver. ± SE) ([1]; dosage 10 mg/kg): 1.0±0.3
CCCCCC(=O)CC[C@H]1[C@H](O)CC(=O)[C@@H]1C/C=C\CCCC(=O)OCCC [(4)] | – | – | – | 16.7 | – | – | 7 | 44.4 | –
CCCCCC(=O)CC[C@H]1[C@H](O)CC(=O)[C@@H]1C/C=C\CCCC(=O)OC(C)C [(5)] | – | – | – | 14.3 | – | – | 6.5 | 44 | –
CCCCCC(=O)CC[C@H]1[C@H](O)CC(=O)[C@@H]1CCCCCCC(=O)OC [(6)] | – | – | – | – | 28 | 72.2 | 5.5 | – | –
CCCCCC(=O)CC[C@H]1[C@H](O)CC(=O)[C@@H]1CCCCCCC(=O)OCC [(7)] | – | – | – | – | 37.5 | 75 | 4.5 | – | –
CCCCCC(=O)CC[C@H]1[C@H](O)CC(=O)[C@@H]1CC(=O)CCCCC(=O)OC [(8)] | 42.9 | 3.8 | 1.7±0.3 | 62.5 | – | – | 0.6 | – | inhibition at 1 mg/kg ([1]; Rattus norvegicus, indomethacin ulcer, oral, dosage 1 mg/kg, read-out: Inhibition factor (%)): 14.3%; Ulcer index (aver. ± SE) ([1]; dosage 1 mg/kg): 2.3±0.4; inhibition at 0.3 mg/kg ([2]; dosage 0.3 mg/kg, read-out: Inhibition factor (%)): 30.6%
